Like-named read-outs stand apart in the source and are kept apart here.
Target: COX-2 (Canis lupus familiaris, UniProt Q8SPQ9)
Test: in vivo
Conditions: for PGE2 Pg/mL/Well: 2 mg/kg PO 30 min before carrageenan, exudate fluid, group average; for inhibition at 2 mg/kg: dog, po
Protocol: This objective of this study was to monitor in vivo COX-2 activity in a subcutaneously implanted chamber during an induced inflammation. The COX-2 enzyme can be detected by western analysis as early as 5 hours after carrageenan treatments (T. Kirchner et al., J. Pharmacol. Exp. Ther. (1997) 282, 1094-1101). […] Six beagle dogs had polyethylene “whiffle” golf balls approximately 4.2 cm in outer diameter surgically implanted under the skin just behind the shoulder blades.
The experiment was run in two replicates. […] The hair around the ball was shaved and the area was probed to locate a hole in the whiffle ball. This area was then marked and it was sterilized with 2% iodine tincture. […] EF samples were taken at 0, 5, and 24 hours after carrageenan injection.
The column was first washed with 10 mL of 0.1 M phosphate buffer then 10 mL water. The EF was then diluted 1:5 with 0.1 M phosphate buffer and added to the column. The column was washed with 10 mL of the phosphate buffer, then 10 mL of water. Finally, the PGE2 was removed from the column with 2.5 mL 95% ethanol.

Sequence of COX-2 (Q8SPQ9 18-604): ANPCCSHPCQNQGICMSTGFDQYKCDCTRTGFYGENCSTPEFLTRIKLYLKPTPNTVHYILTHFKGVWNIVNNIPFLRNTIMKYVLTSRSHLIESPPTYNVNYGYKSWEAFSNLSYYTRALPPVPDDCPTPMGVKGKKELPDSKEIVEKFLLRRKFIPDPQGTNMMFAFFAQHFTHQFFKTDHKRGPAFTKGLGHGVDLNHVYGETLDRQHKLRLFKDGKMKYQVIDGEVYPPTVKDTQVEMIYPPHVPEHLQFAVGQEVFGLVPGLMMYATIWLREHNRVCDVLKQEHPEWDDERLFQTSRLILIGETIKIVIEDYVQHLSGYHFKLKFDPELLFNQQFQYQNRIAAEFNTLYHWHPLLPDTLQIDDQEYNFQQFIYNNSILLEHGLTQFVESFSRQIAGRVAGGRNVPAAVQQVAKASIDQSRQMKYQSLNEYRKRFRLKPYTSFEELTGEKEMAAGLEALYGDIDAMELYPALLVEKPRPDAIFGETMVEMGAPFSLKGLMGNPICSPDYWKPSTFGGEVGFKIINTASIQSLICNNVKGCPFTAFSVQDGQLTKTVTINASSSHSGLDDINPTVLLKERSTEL

## CC(C(=O)O)c1ccc2c(c1)[nH]c1ccc(Cl)cc12 (racemic) [Carprofen (rac.), 6-chloro-α-methyl-9H-carbazole-2-acetic acid]
0-hour
  PGE2 Pg/mL/Well: 6.5 Pg/mL/Well
5-hour
  PGE2 Pg/mL/Well: 1.9 Pg/mL/Well
24-hour
  PGE2 Pg/mL/Well: 3.2 Pg/mL/Well
read-out: In vivo COX-2 activity Percent Inhibition, 2 mg/kg PO, 5-hour after carrageenan, group average
  inhibition at 2 mg/kg: 71%
read-out: In vivo COX-2 activity Percent Inhibition, 2 mg/kg PO, 24-hour after carrageenan, group average
  inhibition at 2 mg/kg: 51%
